According to patent publication US7368470B2, “Substituted 3-pyrrolidine-indole derivatives” (Gruenenthal GmbH, priority 2003, dated 2008):

target: T1, serotonin reuptake (5HT uptake) (Rattus norvegicus, UniProt P31652); assay: Serotonin reuptake inhibition (5HT uptake inhibition) in rat brain synaptosomes; assay type: biochemical; conditions: synaptosomes from male rats' brains
T1 construct: These vesicular particles were isolated from the hypothalamus of male rats' brains for 5HT uptake; from tissue; host or cells: rat brain synaptosomes (P2 fraction; cerebral cortex / hypothalamus of male rats)
Excerpt: a) Tests on Serotonin Reuptake Inhibition
In order to be able to carry out these in vitro studies, synaptosomes from rats' cerebral cortices were freshly isolated. A “P2” fraction prepared according to Gray and Whittaker's instructions (E. G. Gray and V. P. Whittaker (1962) J. Anat. 76, 79-88) was used in each case. These vesicular particles were isolated from the hypothalamus of male rats' brains for 5HT uptake.
A detailed description of the method may be found in the literature (M. Ch. Frink, H.-H. Hennies, W. Englberger, M. Haurand and B. Wilffert (1996) Arzneim.-Forsch./Drug Res. 46 (III), 11, 1029-1036).

T1 sequence (P31652 whole entry): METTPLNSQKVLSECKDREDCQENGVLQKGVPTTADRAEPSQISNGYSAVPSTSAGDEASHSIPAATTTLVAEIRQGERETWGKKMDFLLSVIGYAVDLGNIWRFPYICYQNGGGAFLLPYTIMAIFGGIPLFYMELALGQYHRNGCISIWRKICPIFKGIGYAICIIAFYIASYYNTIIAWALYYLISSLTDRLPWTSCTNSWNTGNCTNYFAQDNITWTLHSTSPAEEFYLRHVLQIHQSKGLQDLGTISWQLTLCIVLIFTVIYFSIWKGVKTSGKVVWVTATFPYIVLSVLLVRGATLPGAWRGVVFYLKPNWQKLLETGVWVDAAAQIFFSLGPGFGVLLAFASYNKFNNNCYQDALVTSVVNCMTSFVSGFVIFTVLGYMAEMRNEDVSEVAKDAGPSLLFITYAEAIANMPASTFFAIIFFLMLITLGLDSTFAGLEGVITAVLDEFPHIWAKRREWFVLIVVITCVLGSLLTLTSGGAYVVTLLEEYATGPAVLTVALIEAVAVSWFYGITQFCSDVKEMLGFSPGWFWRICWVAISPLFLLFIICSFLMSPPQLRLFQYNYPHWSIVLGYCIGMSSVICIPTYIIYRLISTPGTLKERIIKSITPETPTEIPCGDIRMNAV

Row | inhibition at 10 µM | Compound | 5HT uptake, % inhibition [10 μM]
1 | 43% | CN(C)C(=O)Cn1cc(C2CCN(C(=O)NCc3ccc(Cl)c(Cl)c3)C2)c2ccccc21 (stereo not drawn) [Compound 17, 3-(1-dimethylcarbamoylmethyl-1H-indol-3-yl)-pyrrolidine-1-carboxylic acid 3,4-dichloro-benzylamide] | 
2 | 86% | COc1ccc(OC)c(CC(=O)N2CCC(c3cn(CC(=O)N(C)C)c4ccccc34)C2)c1 (stereo not drawn) [Compound 19, 2-(3-{1-[2-(2,5-dimethoxy-phenyl)-acetyl]-pyrrolidin-3-yl}-indol-1-yl)-N,N-dimethyl-acetamide] | 
3 | 84% | CN(C)C(=O)Cn1cc(C2CCN(C(=O)c3ccccn3)C2)c2ccccc21 (stereo not drawn) [Compound 21, N,N-dimethyl-2-{3-[1-(pyridin-2-carbonyl)-pyrrolidin-3-yl]-indol-1-yl}-acetamide] | 
4 | 58% | O=C(C1CCC1)N1CCC(c2c[nH]c3ccccc23)C1 (stereo not drawn) [Compound 22, cyclobutyl-[3-(1H-indol-3-yl)-pyrrolidin-1-yl]-methanone] | 
5 | 49% | CCCCC(=O)N1CCC(c2cn(CC(=O)N(CC)CC)c3ccccc23)C1 (stereo not drawn) [Compound 23, N,N-diethyl-2-[3-(1-pentanoyl-pyrrolidin-3-yl)-indol-1-yl]-acetamide] | 
6 |  | CCN(CC)C(=O)Cn1cc(C2CCN(C(=O)C3CCCC3)C2)c2ccccc21 (stereo not drawn) [Compound 25, 2-1[3-(1-cyclopentanecarbonyl-pyrrolidin-3-yl)-indol-1-yl]-N,N-diethyl acetamide] | 80%
7 | 70% | O=C(c1ccccc1Cl)N1CCC(c2c[nH]c3ccccc23)C1 (stereo not drawn) [Compound 27, (2-chloro-phenyl)-[3-(1H-indol-3-yl)-pyrrolidin-1-yl]-methanone] | 
8 | 63% | Cc1ccc(S(=O)(=O)NC(Cc2ccccc2)C(=O)N2CCC(c3cn(CC(=O)N(C)C)c4ccccc34)C2)cc1 (stereo not drawn) [Compound 29, N,N-dimethyl-2-(3-{1-[3-phenyl-2-(toluene-4-sulphonylamino)-propionyl]-pyrrolidin-3-yl)-indol-1-yl)-acetamide] | 
9 | 47% | CN(C)C(=O)Cn1cc(C2CCN(S(=O)(=O)Cc3ccccc3)C2)c2ccccc21 (stereo not drawn) [Compound 30, N,N-dimethyl-2-[3-(1-phenylmethanesulphonyl-pyrrolidin-3-yl)-indol-1-yl]-acetamide] | 
10 | 46% | Cn1cc(C2CCN(C(=O)c3c(F)c(F)c(F)c(F)c3F)C2)c2ccccc21 (stereo not drawn) [Compound 47, [3-(1-methyl-1H-indol-3-yl)-pyrrolidin-1-yl]-pentafluorophenyl-methanone] | 
11 | 83% | Cc1cc(C)cc(Cn2cc(C3CCN(CC(=O)Nc4scc(C)c4C#N)C3)c3ccccc32)c1 (stereo not drawn) [Compound 50, N-(3-cyano-4-methyl-thiophen-2-yl)-2-{3-[1-(3,5-dimethyl-benzyl)-1H-indol-3-yl]-pyrrolidin-1-yl}acetamide] | 
12 |  | O=C(CN1CCC(c2cn(Cc3ccc(F)c(F)c3)c3ccccc23)C1)Nc1csc(C(F)(F)F)c1-c1ccccc1 (stereo not drawn) [Compound 53, 2-{3-[1-(3,4-difluoro-benzyl)-1H-indol-3-yl]-pyrrolidin-1-yl}-N-(4-phenyl-5-trifluiommethyl-thiophen-3-yl)-acetamide] | 55%

Row | Compound | inhibition at 10 µM | 5HT uptake, % inhibition [10 μM]
13 | Cc1oc(C(C)(C)C)cc1C(=O)N1CCC(c2cn(Cc3ccccc3C#N)c3ccccc23)C1 (stereo not drawn) [Compound 33, 2-{3-[1-(5-tert-butyl-2-methyl-furan-3-carbonyl)pyrrolidin-3-yl]-indol-1-ylmethyl)-benzonitrile] | 87% | 

system: binding site 2 of the sodium channel (batrachotoxin (BTX) binding site); assay: Binding test on the sodium channel, binding site 2 (BTX bond), [3H]-batrachotoxinin A20 α-benzoate as ligand; parameters: species or system rat; conditions: 10 μM; rat cerebrocortex synaptosomes; ligand 10 nM; 25° C., 120 min

Row | Compound | BTX bond, % inhibition [10 μM]
14 | CCCc1ccc(C(=O)N2CCC(c3cn(Cc4ccc(C(F)(F)F)cc4)c4ccccc34)C2)cc1 (stereo not drawn) [Compound 1, (4-propyl-phenyl)-{3-[1-(4-trifluoromethyl-benzyl)-1H-indol-3-yl]-pyrrolidin-1-yl}-methanone] | 95%
15 | COc1ccc(C(=O)N2CCC(c3cn(CCC(C)C)c4ccccc34)C2)cc1OC (stereo not drawn) [Compound 2, (3,4-dimethoxy-phenyl)-{3-[1-(3-methyl-butyl)-1H-indol-3-yl]-pyrrolidin-1-yl}-methanone] | 93%
16 | CCCCn1cc(C2CCN(C(=O)c3ccc(C(F)(F)F)nc3C)C2)c2ccccc21 (stereo not drawn) [Compound 3] | 93%
17 | COc1cccc(Cn2cc(C3CCN(C(=O)C=Cc4ccccc4)C3)c3ccccc32)c1 (stereo not drawn) [Compound 4, 1-{3-[1-(3-methoxy-benzyl)-1H-indol-3-yl]-pyrrolidin-1-yl}-3-phenyl-propenone] | 92%
18 | O=C(c1cccc(F)c1F)N1CCC(c2cn(Cc3ccc(C(F)(F)F)cc3)c3ccccc23)C1 (stereo not drawn) [Compound 5, (2,3-difluoro-phenyl)-{3-[1-(4-trifluoromethyl-benzyl)-1H-indol-3-yl]-pyrrolidin-1-yl}-methanone] | 92%
19 | CC(C)CCn1cc(C2CCN(C(=O)c3ccc(C(C)(C)C)cc3)C2)c2ccccc21 (stereo not drawn) [Compound 6, (4-tert-butyl-phenyl)-{3-[1-(3-methyl-butyl)-1H-indol-3-yl]-pyrrolidin-1-yl}-methanone] | 91%
20 | CCCc1ccc(C(=O)N2CCC(c3cn(Cc4ccc(Br)cc4)c4ccccc34)C2)cc1 (stereo not drawn) [Compound 7, {3-[1-(4-bromo-benzyl)-1H-indol-3-yl]-pyrrolidin-1-yl}-(4-propyl-phenyl)-methanone] | 89%
21 | CCOc1ccccc1C(=O)N1CCC(c2cn(Cc3cccc(OC)c3)c3ccccc23)C1 (stereo not drawn) [Compound 8, (2-ethoxy-phenyl)-{3-[1-(3-methoxy-benzyl)-1H-indol-3-yl]-pyrrolidin-1-yl}-methanone] | 88%
22 | CCn1cc(C2CCN(C(=O)c3ccc(C(F)(F)F)c(F)c3)C2)c2ccccc21 (stereo not drawn) [Compound 9] | 84%
23 | CCn1cc(C2CCN(C(=O)c3cccc(C)c3C)C2)c2ccccc21 (stereo not drawn) [Compound 10, (2,3-dimethyl-phenyl)-[3-(1-ethyl-1H-indol-3-yl)-pyrrolidin-1-yl]-methanone] | 83%
24 | COc1cccc(Cn2cc(C3CCN(C(=O)C(C)Oc4ccccc4)C3)c3ccccc32)c1 (stereo not drawn) [Compound 11, 1-{3-[1-(3-methoxy-benzyl)-1H-indol-3-yl]-pyrrolidin-1-yl}-2-phenoxy-propan-1-one] | 83%
25 | CCn1cc(C2CCN(C(=O)COc3cccc(Cl)c3)C2)c2ccccc21 (stereo not drawn) [Compound 12, 2-(3-chloro-phenoxy)-1-[3-(1-ethyl-1H-indol-3-yl)-pyrrolidin-1-yl]-ethanone] | 83%
26 | CC(Oc1ccccc1)C(=O)N1CCC(c2cn(Cc3ccc(C#N)cc3)c3ccccc23)C1 (stereo not drawn) [Compound 13, 4-(3-[1-(2-phenoxy-propionyl)-pyrrolidin-3-yl]-indol-1-ylmethyl}-benzonitrile] | 82%
27 | Cc1cc(C)c(S(=O)(=O)N2CCC(c3cn(CC(=O)N(C)C)c4ccccc34)C2)c(C)c1 (stereo not drawn) [Compound 14, N,N-dimethyl-2-{3-[1-(2,4,6-trimethyl-benzenesulphonyl)-pyrrolidin-3-yl]-indol-1-yl}-acetamide] | 80%
28 | CCn1cc(C2CCN(C(=O)c3ccc(Cl)c(Cl)c3)C2)c2ccccc21 (stereo not drawn) [Compound 15, (3,4-dichloro-phenyl)-[3-(1-ethyl-1H-indol-3-yl)-pyrrolidin-1-yl]-methanone] | 80%
29 | Cc1oc(C(C)(C)C)cc1C(=O)N1CCC(c2cn(Cc3ccccc3C#N)c3ccccc23)C1 (stereo not drawn) [Compound 33, 2-{3-[1-(5-tert-butyl-2-methyl-furan-3-carbonyl)pyrrolidin-3-yl]-indol-1-ylmethyl)-benzonitrile] | 89%

same assay, conditions: radioligand; mean±SEM, N=3 independent test series; read-out: KD value for this binding site

Row | Compound | Kd
30 | [^3H]-batrachotoxinin A20 α-benzoate [reference compound] | 24.6 ± 1.56 nM
